In the assay the target is T1, 5-α-reductase type I (Homo sapiens, UniProt P18405).
T1 sequence (P18405 1-259): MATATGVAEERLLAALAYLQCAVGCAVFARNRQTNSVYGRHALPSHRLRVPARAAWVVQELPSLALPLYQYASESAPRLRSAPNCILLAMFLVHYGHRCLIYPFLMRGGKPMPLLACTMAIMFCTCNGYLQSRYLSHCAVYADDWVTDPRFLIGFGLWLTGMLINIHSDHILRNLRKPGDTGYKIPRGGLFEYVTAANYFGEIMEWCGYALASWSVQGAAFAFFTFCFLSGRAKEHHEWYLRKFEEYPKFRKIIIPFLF
In kind it is biochemical.

Take `CCCCCCCCCCCCCCC[C@@H](O)[C@@H](N)CO` (racemic) [sphinganine]: the IC50 was 6.5±0.33 and 6.8±0.1 μM.
On to `CC(C)(C)NC(=O)[C@H]1CC[C@H]2[C@@H]3CC[C@H]4NC(=O)C=C[C@]4(C)[C@H]3CC[C@]12C` [finasteride], for which the IC50 stood at 420 ± 20 nM.

(Values after PMC5021059 (Clinical, Cosmetic and Investigational Dermatology, 2016).)
